From PMC6407204, “Oral administration of the cannabigerol derivative VCE-003.2 promotes subventricular zone neurogenesis and protects against mutant huntingtin-induced neurodegeneration” (Translational Neurodegeneration, 2019)

Assays:
[1] = tested on: S. typhimurium TA100; experiment: AMES reverse mutation assay, TA100; type: cell-based
Description: Supplementary file 40035_2019_148_MOESM4_ESM.pdf: Additional file 4: AMES Data Summary. AMES Experimental Procedure. Approximately ten million bacteria are exposed in triplicate to VCE-003-.2 (7.8, 15.6, 31.3, 62.5, 125 and 250 μg/ml), a negative control (vehicle) and a positive control for 90 min in medium containing a low concentration of histidine (sufficient for about 2 doublings). The cultures were then diluted into indicator medium lacking histidine and dispensed into 48 wells of a 384 well plate (micro-plate format, MPF). The plate was incubated for 48 h at 37 °C, and the number of wells showing growth were counted and compared to the vehicle control. An increase in the number of colonies of at least two-fold over baseline (mean + SD of the vehicle control) and a dose response indicates a positive response. […] Where indicated, S9 fraction from the livers of Aroclor 1254-treated rats was included in the incubation at a final concentration of 4.5%. An NADPH-regenerating system is also included to ensure a steady supply of reducing equivalents. The strains used in this study were S. typhimurium TA98 (hisD3052, rfa, uvrB/pKM10 for detection of frame-shift mutations) and S. typhimurium TA100 ([…], rfa, uvrB/pKM101 for detection of base-pair substitutions). VCE-003.2 was assessed for its mutagenic potential in the AMES reverse mutation assay. This test was performed in the absence and presence of S9 metabolic activation. […] The positive controls all behaved as expected. (PDF 568 kb)

[2] = molecular target: T1, hERG channel (Homo sapiens, UniProt Q12809); experiment: hERG channel inhibition, IonWorks HT electrophysiology in CHO-hERG cells
[3] = tested on: relevant cytochrome P450 isoforms; type: in vitro ADME; details: human liver microsomes, up to 25 μM
Description: (§1) Supplementary file 40035_2019_148_MOESM2_ESM.pdf: Additional file 2: Cytochrome P450 Inhibition (IC50 Determination). CYP1A Inhibition. VCE-003.2 (0.1, 0.25, 1, 2.5, 10, 25 μM in DMSO; final DMSO concentration = 0.3%) was incubated with human liver microsomes (0.25 mg/mL) and NADPH (1 mM) in the presence of the probe substrate ethoxyresorufin (0.5 μM) for 5 min at 37 °C. The selective CYP1A inhibitor, alpha-naphthoflavone, was screened alongside the test compounds as a positive control. CYP2B6 Inhibition. VCE-003.2 (0.1, 0.25, 1, 2.5, 10, 25 μM in DMSO; final DMSO concentration = 0.3%) was incubated with human liver microsomes (0.1 mg/mL) and NADPH (1 mM) in the presence of the probe substrate bupropion (110 μM) for 5 min at 37 °C. The selective CYP2B6 inhibitor, ticlopidine, was screened alongside the test compounds as a positive control. CYP2C8 Inhibition. […] For the CYP1A incubations, the reactions were terminated by methanol, and the formation of the metabolite, resorufin, was monitored by fluorescence (excitation wavelength = 535 nm, emission wavelength = 595 nm). […] Hydroxybupropion, 6α-hydroxypaclitaxel and 6ß-hydroxytestosterone were analyzed separately by LC-MS/MS. […]

[4] = molecular target: T2, CYP1A (Homo sapiens, UniProt P05177); type: in vitro ADME; details: Substrate = Etoxyresorufin, human liver microsomes
T2 construct: from tissue; host or cells: human liver microsomes
Description: as §1

[5] = molecular target: T1, hERG channel
[6] = molecular target: T3, CYP2C8 (Homo sapiens, UniProt P10632); experiment: biochemical; type: in vitro ADME; details: Substrate = Paclitaxel, human liver microsomes
T3 construct: from tissue; host or cells: human liver microsomes
Description: Supplementary file 40035_2019_148_MOESM2_ESM.pdf: Additional file 2: Cytochrome P450 Inhibition (IC50 Determination). CYP1A Inhibition. VCE-003.2 (0.1, 0.25, 1, 2.5, 10, 25 μM in DMSO; final DMSO concentration = 0.3%) was incubated with human liver microsomes (0.25 mg/mL) and NADPH (1 mM) in the presence of the probe substrate ethoxyresorufin (0.5 μM) for 5 min at 37 °C. The selective CYP1A inhibitor, alpha-naphthoflavone, was screened alongside the test compounds as a positive control. CYP2B6 Inhibition. VCE-003.2 (0.1, 0.25, 1, 2.5, 10, 25 μM in DMSO; final DMSO concentration = 0.3%) was incubated with human liver microsomes (0.1 mg/mL) and NADPH (1 mM) in the presence of the probe substrate bupropion (110 μM) for 5 min at 37 °C. The selective CYP2B6 inhibitor, ticlopidine, was screened alongside the test compounds as a positive control. CYP2C8 Inhibition. VCE-003.2 (0.1, 0.25, 1, 2.5, 10, 25 μM in DMSO; final DMSO concentration = 0.3%) was incubated with human liver microsomes (0.25 mg/mL) and NADPH (1 mM) in the presence of the probe substrate paclitaxel (7.5 μM) for 30 min at 37 °C. The selective CYP2C8 inhibitor, montelukast, was screened alongside the test compounds as a positive control. CYP2C9 Inhibition. VCE-003.2 (0.1, 0.25, 1, 2.5, 10, 25 μM in DMSO; final DMSO concentration = 0.3%) was incubated with human liver microsomes (1 mg/mL) and NADPH (1 mM) in the presence of the probe substrate tolbutamide (120 μM) for 60 min at 37 °C. The selective CYP2C9 inhibitor, sulphaphenazole, was screened alongside the test compounds as a positive control. CYP2C19 Inhibition. VCE-003.2 (0.1, 0.25, 1, 2.5, 10, 25 μM in DMSO; final DMSO concentration = 0.3%) was incubated with human liver microsomes (0.5 mg/mL) and NADPH (1 mM) in the presence of the probe substrate mephenytoin (25 μM) for 60 min at 37 °C. The selective CYP2C19 inhibitor, tranylcypromine, was screened alongside the test compounds as a positive control. CYP2D6 Inhibition. VCE-003.2 (0.1, 0.25, 1, 2.5, 10, 25 μM in DMSO; final DMSO concentration = 0.3%) was incubated with human liver microsomes (0.5 mg/mL) and NADPH (1 mM) in the presence of the probe substrate dextromethorphan (5 μM) for 5 min at 37 °C. […] CYP3A4 Inhibition. VCE-003.2 (0.1, 0.25, 1, 2.5, 10, 25 μM in DMSO; final DMSO concentration = 0.3%) was incubated with human liver microsomes (0.1 mg/mL) and NADPH (1 mM) in the presence of the probe substrate midazolam (2.5 μM) for 5 min at 37 °C. The selective CYP3A4 inhibitor, ketoconazole, was screened alongside the test compounds as a positive control. CYP3A4 Inhibition. VCE-003.2 (0.1, 0.25, 1, 2.5, 10, 25 μM in DMSO; final DMSO concentration = 0.3%) was incubated with human liver microsomes (0.5 mg/mL) and NADPH (1 mM) in the presence of the probe substrate testosterone (50 μM) for 5 min at 37 °C. The selective CYP3A4 inhibitor, ketoconazole, was screened alongside the test compounds as a positive control. For the CYP1A incubations, the reactions were terminated by methanol, and the formation of the metabolite, resorufin, was monitored by fluorescence (excitation wavelength = 535 nm, emission wavelength = 595 nm). For the CYP2B6, CYP2C9, CYP2C19, CYP2D6, and CYP3A4 incubations, the reactions were terminated by methanol. The samples were centrifuged, and the supernatants combined for the simultaneous analysis of 4-hydroxytolbutamide, 4-hydroxymephenytoin, dextrorphan, and 1-hydroxymidazolam by LC-MS/MS. Hydroxybupropion, 6α-hydroxypaclitaxel and 6ß-hydroxytestosterone were analyzed separately by LC-MS/MS. A decrease in the formation of the metabolites compared to vehicle control was used to calculate IC50 values. (PDF 323 kb)

[7] = tested on: quinolinic acid-administration model of HD; set-up: method as in PMID 27430371; details: cited from earlier work
[8] = tested on: osteoblast differentiation; details: compared with full PPARγ-agonists; cited from earlier work

T1 sequence (Q12809 whole entry, canonical isoform): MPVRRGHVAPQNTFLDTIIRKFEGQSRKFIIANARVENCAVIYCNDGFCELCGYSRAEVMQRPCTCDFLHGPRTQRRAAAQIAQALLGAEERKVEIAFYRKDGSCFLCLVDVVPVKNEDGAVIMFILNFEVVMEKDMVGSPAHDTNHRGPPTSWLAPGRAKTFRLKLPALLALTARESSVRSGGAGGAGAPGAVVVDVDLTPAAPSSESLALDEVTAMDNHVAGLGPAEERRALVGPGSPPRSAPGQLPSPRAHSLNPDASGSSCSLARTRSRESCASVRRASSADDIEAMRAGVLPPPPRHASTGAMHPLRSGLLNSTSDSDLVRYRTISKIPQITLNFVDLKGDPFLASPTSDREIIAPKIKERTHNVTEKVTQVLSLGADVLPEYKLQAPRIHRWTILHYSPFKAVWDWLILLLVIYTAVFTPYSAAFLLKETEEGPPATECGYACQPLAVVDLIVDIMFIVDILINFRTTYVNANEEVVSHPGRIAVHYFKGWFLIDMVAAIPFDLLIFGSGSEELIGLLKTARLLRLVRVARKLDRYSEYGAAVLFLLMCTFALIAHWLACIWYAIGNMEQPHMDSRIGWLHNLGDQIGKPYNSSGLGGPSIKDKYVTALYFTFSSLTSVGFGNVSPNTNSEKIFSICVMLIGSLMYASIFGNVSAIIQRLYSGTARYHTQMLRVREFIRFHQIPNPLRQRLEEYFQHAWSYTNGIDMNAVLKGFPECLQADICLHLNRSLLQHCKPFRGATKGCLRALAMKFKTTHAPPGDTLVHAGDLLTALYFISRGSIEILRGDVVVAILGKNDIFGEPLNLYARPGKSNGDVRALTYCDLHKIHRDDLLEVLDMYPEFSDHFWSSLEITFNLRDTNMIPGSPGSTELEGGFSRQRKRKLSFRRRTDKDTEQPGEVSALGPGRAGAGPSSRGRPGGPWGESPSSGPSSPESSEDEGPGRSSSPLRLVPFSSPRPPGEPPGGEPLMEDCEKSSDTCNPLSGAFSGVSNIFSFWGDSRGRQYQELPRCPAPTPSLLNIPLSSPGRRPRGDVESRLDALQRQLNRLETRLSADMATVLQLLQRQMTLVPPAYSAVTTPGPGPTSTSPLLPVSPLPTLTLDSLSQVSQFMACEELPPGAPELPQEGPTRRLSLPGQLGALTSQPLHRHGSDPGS
T3 sequence (P10632 whole entry): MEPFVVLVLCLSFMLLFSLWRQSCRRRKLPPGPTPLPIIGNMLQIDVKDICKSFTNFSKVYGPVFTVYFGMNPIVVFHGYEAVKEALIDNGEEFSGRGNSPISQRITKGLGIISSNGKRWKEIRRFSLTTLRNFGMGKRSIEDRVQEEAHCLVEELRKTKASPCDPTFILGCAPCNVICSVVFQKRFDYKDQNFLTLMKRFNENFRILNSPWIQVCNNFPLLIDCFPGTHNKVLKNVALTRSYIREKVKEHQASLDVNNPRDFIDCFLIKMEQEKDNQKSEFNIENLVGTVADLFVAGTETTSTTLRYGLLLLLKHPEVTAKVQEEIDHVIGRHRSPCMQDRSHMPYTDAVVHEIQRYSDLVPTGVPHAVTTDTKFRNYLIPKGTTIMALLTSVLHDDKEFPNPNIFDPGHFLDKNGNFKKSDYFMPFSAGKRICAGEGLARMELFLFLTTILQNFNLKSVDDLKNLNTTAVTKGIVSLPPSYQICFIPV
T2 sequence (P05177 2-516 limits assumed): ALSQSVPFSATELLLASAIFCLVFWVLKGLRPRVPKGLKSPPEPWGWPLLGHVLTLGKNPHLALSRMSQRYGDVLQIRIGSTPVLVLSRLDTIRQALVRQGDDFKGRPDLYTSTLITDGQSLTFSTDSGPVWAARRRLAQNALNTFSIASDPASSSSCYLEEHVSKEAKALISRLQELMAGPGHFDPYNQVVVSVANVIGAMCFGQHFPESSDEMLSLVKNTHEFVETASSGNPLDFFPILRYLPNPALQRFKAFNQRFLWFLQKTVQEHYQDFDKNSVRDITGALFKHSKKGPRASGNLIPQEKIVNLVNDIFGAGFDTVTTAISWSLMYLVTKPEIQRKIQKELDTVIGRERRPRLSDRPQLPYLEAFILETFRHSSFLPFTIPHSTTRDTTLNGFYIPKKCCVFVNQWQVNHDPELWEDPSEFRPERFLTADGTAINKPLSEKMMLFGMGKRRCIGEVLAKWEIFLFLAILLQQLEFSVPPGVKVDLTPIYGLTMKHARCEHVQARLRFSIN

Compound: CCCCCC1=C(NCC)C(=O)C(CC=C(C)CCC=C(C)C)=C(O)C1=O [VCE-003.2, 2-(3,7-dimethyl-octa-2,6-dienyl)-6-ethylamino-3-hydroxy-5-pentyl-(1,4) benzoquinone]
- AMES Result ([1]; TA100, S9 no): Negative
- AMES Result ([1]; TA100, S9 yes): Negative
- IC50 [2]: > 25 µM
- inhibition of cytochrome P450 isoforms (in words) [3]: did not inhibit significantly
- IC50 [4]: > 25 µM
- hERG channel activity inhibition (in words) [5]: did not inhibit hERG channel activity
- IC50 [6]: 13 ± 2.4 µM
- neuroprotection in quinolinic acid model of HD [7]: neuroprotective
- interference with osteoblast differentiation [8]: does not interfere with osteoblast differentiation
